Tested on in one data set: not listed separately
Nature of the data set: Mouse pharmacokinetic study (intravenous and oral). Type of data set: in vivo. Conditions: Examples compared to reference compound IDN-6556. From the text: Experimental Example 2: Mouse Pharmacokinetic Study
The mice were randomly divided into two groups (one intravenous group and one oral group) or only oral group, 3 males in each group. The compounds were formulated into the designated preparations. The intravenous preparations should be filtered to provide clear solutions, and the oral preparations can be clear or can be uniform suspensions. All animals in the intravenous group were intravenously injected with the given doses of the compound preparations through tail veins. The oral group was administrated with the given doses of the preparations by gavage.
Whole blood samples were collected from the other side of the tail vein at 8 time points (2 min, 5 min, 15 min, 30 min, 1 h, 2 h, 4 h and 8 h after administration) in the intravenous group, about 25 μL for each sample; whole blood samples were collected from the tail vein at 8 time points (2 min, 5 min, 15 min, 30 min, 1 h, 2 h, 4 h and 8 h after administration) in the oral group, about 25 μL for each sample.
[…] were added to a centrifuge tube containing anticoagulants, and centrifuged at 4° C., 3000 g for 15 min. The supernatant plasma was quickly frozen on dry ice and stored in a ⋅ refrigerator at −70° C.±10° C. until LC-MS/MS analysis was performed.
The concentration data of plasma drug for the compounds were processed with the non-compartmental model using WinNonlin™ Version 6.3.0 (Pharsight, Mountain View, Calif.) pharmacokinetic software. The peak concentration (Cmax), time to peak concentration (Tmax) and last time for quantitative were obtained directly from the blood concentration-time chart.
The following pharmacokinetic parameters were calculated by using Log-linear Trapezoidal method: elimination phase half-life (T1/2); apparent volume of distribution (Vdss) and clearance rate (CL); the average residence time of the drug in vivo from 0 to the last time point (MRT0-last); the average residence time of the drug in vivo from zero time to infinity (MRT0-inf); the area under time-plasma concentration curve from 0 to the last time point (AUC0-last); the area under time-plasma concentration curve from zero time to infinity (AUC0-inf); initial concentration (C0).
For individual plasma concentrations of less than BQL, the concentrations appeared before Tmax were calculated as 0, and the concentrations appeared after Tmax were directly excluded. All parameters and ratios were reported in the forms of three significant digits.
The pharmacokinetic parameters of this experiment were calculated according to the theoretical blood collection times and the theoretical dose concentrations as described in the protocol. The deviations between the actual dose concentrations and the theoretical concentrations were within the range of ±20%. The deviations between the actual blood collection times and the theoretical blood collection times were in conformity with the relevant SOP (the point within 1 hour after administration was within the range of ±1 min, and the others were within 5% of the theoretical time).
In the case of `CC(C)(C)c1ccccc1NC(=O)C(=O)N1CCC(C(=O)N[C@@H](CC(=O)O)C(=O)COc2c(F)c(F)cc(F)c2F)CC1` [Example 7], the “half-life (in words)” value is listed as “significantly improved” and the “in vivo exposure (in words)” value is recorded as “significantly improved”.

Staying with this data set, now noted: compared to reference compound IDN-6556.
For `CC(C)(C)c1ccccc1NC(=O)C(=O)N1CCC(C(=O)N[C@@H](CC(=O)O)C(=O)COc2c(F)c(F)cc(F)c2F)CC1` [Example 7], the “oral bioavailability (in words)” value is “significantly improved”.

Staying with this data set, now noted: oral administration 10 mpk.
On to `CC(C)(C)c1ccccc1NC(=O)C(=O)N1CCC(C(=O)N[C@@H](CC(=O)O)C(=O)COc2c(F)c(F)cc(F)c2F)CC1` [Example 7], for which the “Area under the concentration-time curve” value was 3.657 µM·h, the Peak concentration amounted to 1636 nM and the “Time to peak concentration” value is reported as 0.833 h.

For the next data set, the system named is Anti-Fas-induced Jurkat cells. Nature of the data set: Anti-Fas-induced apoptosis of Jurkat cells in vitro (Caspase 3 substrate Ac-DEVD-AMC fluorescence). It is filed as cell-based. Conditions: Homo sapiens; Jurkat Clone E6-1, Anti-Fas 50 ng/mL, 24 hours, Ac-DEVD-AMC 10 μM.
For orientation: EC50 means the concentration giving half of the maximal effect. Higher therefore signals a need for much substance. `CN(C(=O)C(=O)N1CCC(C(=O)N[C@@H](CC(=O)O)C(=O)COc2c(F)c(F)cc(F)c2F)CC1)c1ccccc1C(C)(C)C` [Example 64]: the EC50 stood at 64.7 nM.
`O=C(O)C[C@H](NC(=O)C1CCN(C(=O)OCC(F)(F)F)CC1)C(=O)COc1c(F)c(F)cc(F)c1F` [Example 67]: the EC50 came to 14.6 nM.
Still for that read-out and setting: next, `CC(C)OC(=O)N1CCC(C(=O)N[C@@H](CC(=O)O)C(=O)COc2c(F)c(F)cc(F)c2F)CC1` [Example 68]: 23.2 nM; `O=C(O)C[C@H](NC(=O)C1CCN(C(=O)OCc2ccccc2)CC1)C(=O)COc1c(F)c(F)cc(F)c1F` [Example 71]: 29.3 nM.
Consider `Cc1ccc(Cl)c(OC(=O)N2CCC(C(=O)N[C@@H](CC(=O)O)C(=O)COc3c(F)c(F)cc(F)c3F)CC2)c1` [Example 72], for which a half-maximal effect (EC50) was put at 17.9 nM.
With `CC(C)[C@H]1CC[C@H](C)C[C@@H]1OC(=O)N1CCC(C(=O)N[C@@H](CC(=O)O)C(=O)COc2c(F)c(F)cc(F)c2F)CC1` [Example 77], it took 96 nM to reach a half-maximal effect (EC50).
Still for that read-out and setting: then `O=C(O)C[C@H](NC(=O)C1CCN(C(=O)NCc2ccccc2)CC1)C(=O)COc1c(F)c(F)cc(F)c1F` [Example 78], with 35.9 nM.
The same measure, in the same setting: then `O=C(O)C[C@H](NC(=O)C1CCN(C(=O)NC2CCCC2)CC1)C(=O)COc1c(F)c(F)cc(F)c1F` [Example 79], with 26 nM.
`O=C(O)C[C@H](NC(=O)C1CCN(C(=O)Nc2ccccc2)CC1)C(=O)COc1c(F)c(F)cc(F)c1F` [Example 80] came in with an EC50 of 17.5 nM.
`O=C(O)C[C@H](NC(=O)C1CCN(S(=O)(=O)c2ccccc2)CC1)C(=O)COc1c(F)c(F)cc(F)c1F` [Example 81]: the EC50 came out at 959 nM.
Take `O=C(O)C[C@H](NC(=O)C1CCN(c2ncc3cc(F)ccc3n2)CC1)C(=O)COc1c(F)c(F)cc(F)c1F` [Example 82]: the EC50 was determined as 44 nM.
On the same count and under the same terms, then `O=C(O)C[C@H](NC(=O)C1CCN(c2nc3ccccc3o2)CC1)C(=O)COc1c(F)c(F)cc(F)c1F` [Example 83], with 24 nM; and `O=C(O)C[C@H](NC(=O)C1CCN(c2noc3ccccc23)CC1)C(=O)COc1c(F)c(F)cc(F)c1F` [Example 84], with 35 nM.
For `O=C(O)C[C@H](NC(=O)C1CCN(C(=O)c2ccno2)CC1)C(=O)COc1c(F)c(F)cc(F)c1F` [Example 85], the EC50 turned out to be 16.3 nM.
For the compound `O=C(O)C[C@H](NC(=O)C1CCN(C(=O)C(=O)Nc2cc(Cl)ccc2C(F)(F)F)CC1)C(=O)COc1c(F)c(F)cc(F)c1F` [Example 88], the EC50 was determined as 33.8 nM.
Compound `O=C(O)C[C@H](NC(=O)C1CCN(C(=O)N2CCCC2)CC1)C(=O)COc1c(F)c(F)cc(F)c1F` [Example 89] showed an EC50 of 8.98 nM.
`O=C(O)C[C@H](NC(=O)C1CCN(C(=O)C(=O)N2CCCC2)CC1)C(=O)COc1c(F)c(F)cc(F)c1F` [Example 90]: a half-maximal response (EC50) required 44.2 nM.
The compound `O=C(O)C[C@H](NC(=O)C1CCN(C(=O)OCc2ccc(Cl)cc2Cl)CC1)C(=O)COc1c(F)c(F)cc(F)c1F` [Example 91] came in with an EC50 of 62 nM.
The compound `Cc1ccc(C)c(CCNC(=O)C(=O)N2CCC(C(=O)N[C@@H](CC(=O)O)C(=O)COc3c(F)c(F)cc(F)c3F)CC2)c1` [Example 94] gave an EC50 of 43.9 nM.
In turn, `Cc1ccc(C)c(CNC(=O)C(=O)N2CCC(C(=O)N[C@@H](CC(=O)O)C(=O)COc3c(F)c(F)cc(F)c3F)CC2)c1` [Example 95] showed a half-maximal effective concentration (EC50) of 33.2 nM.
Take `O=C(O)C[C@H](NC(=O)C1CCN(C(=O)OCc2cc(Cl)ccc2Cl)CC1)C(=O)COc1c(F)c(F)cc(F)c1F` [Example 96]: the EC50 came to 52.8 nM.
The same measure, in the same setting: then `CC(C)[C@@H]1CC[C@@H](C)C[C@H]1OC(=O)N1CCC(C(=O)N[C@@H](CC(=O)O)C(=O)COc2c(F)c(F)cc(F)c2F)CC1` [Example 97], with 112 nM.
In the case of `O=C(O)C[C@H](NC(=O)C1CCN(C(=O)O[C@@H]2C[C@H]3CC[C@@H]2C3)CC1)C(=O)COc1c(F)c(F)cc(F)c1F` [Example 100], the EC50 came out at 31.5 nM.
The same measure, in the same setting: next, `O=C(O)C[C@H](NC(=O)C1CCN(C(=O)C(=O)Nc2cc(Cl)ccc2Cl)CC1)C(=O)COc1c(F)c(F)cc(F)c1F` [Example 101]: 61.3 nM.
As to `O=C(O)C[C@H](NC(=O)C1CCN(C(=O)Oc2cccc(Cl)c2Cl)CC1)C(=O)COc1c(F)c(F)cc(F)c1F` [Example 103], the EC50 was determined as 19.8 nM.
`O=C(O)C[C@H](NC(=O)C1CCN(c2nc3cc(F)ccc3o2)CC1)C(=O)COc1c(F)c(F)cc(F)c1F` [Example 104] displayed an EC50 of 29.8 nM.
The compound `O=C(O)C[C@H](NC(=O)CC1CN(C(=O)C2CCCC2)C1)C(=O)COc1c(F)c(F)cc(F)c1F` [Example 105] came in with an EC50 of 27.6 nM.
The compound `O=C(O)C[C@H](NC(=O)C1CC2(CCN(C(=O)C3CCCC3)CC2)C1)C(=O)COc1c(F)c(F)cc(F)c1F` [Example 106] registered an EC50 of 17.5 nM.
The same measure, in the same setting: then `CC(C)(C)c1ccccc1NC(=O)C(=O)N1CCCO[C@H](C(=O)N[C@@H](CC(=O)O)C(=O)COc2c(F)c(F)cc(F)c2F)C1` [Example 109], with 192 nM.
Take `CC(C)(C)c1ccccc1NC(=O)C(=O)N1CCCO[C@@H](C(=O)N[C@@H](CC(=O)O)C(=O)COc2c(F)c(F)cc(F)c2F)C1` [Example 110]: the half-maximal effective concentration (EC50) was found to be 383 nM.
The compound `CC(C)(C)c1ccccc1NC(=O)C(=O)N1CCCC[C@](C)(C(=O)N[C@@H](CC(=O)O)C(=O)COc2c(F)c(F)cc(F)c2F)C1` [Example 111] had an EC50 of 23 nM.
With `CC(C)(C)c1ccccc1NC(=O)C(=O)N1CCCC[C@@](C)(C(=O)N[C@@H](CC(=O)O)C(=O)COc2c(F)c(F)cc(F)c2F)C1` [Example 112], the response was half-maximal at 165 nM (EC50).
`CC(C)(C)c1ccccc1NC(=O)C(=O)N1CCCCC[C@@H](C(=O)N[C@@H](CC(=O)O)C(=O)COc2c(F)c(F)cc(F)c2F)C1` [Example 113] had an EC50 of 46.2 nM.
For the compound `CC(C)(C)c1ccccc1NC(=O)C(=O)N1CCCCC[C@H](C(=O)N[C@@H](CC(=O)O)C(=O)COc2c(F)c(F)cc(F)c2F)C1` [Example 114], a half-maximal response (EC50) required 66.3 nM.
`O=C(O)C[C@H](NC(=O)[C@@H]1CCCCN(C(=O)c2noc3ccccc23)C1)C(=O)COc1c(F)c(F)cc(F)c1F` [Example 122]: the response was half-maximal at 5.8 nM (EC50).
`CC(C)(C)c1ccccc1NC(=O)C(=O)N1CCOC[C@@H](C(=O)N[C@@H](CC(=O)O)C(=O)COc2c(F)c(F)cc(F)c2F)C1` [Example 123] gave an EC50 of 38.9 nM.
As for `CC(C)(C)c1ccccc1NC(=O)C(=O)N1CCOC[C@H](C(=O)N[C@@H](CC(=O)O)C(=O)COc2c(F)c(F)cc(F)c2F)C1` [Example 124], the midpoint of the response, the EC50, lay at 28.7 nM.
In turn, `O=C(O)C[C@H](NC(=O)[C@H]1COCCN(C(=O)c2cc(-c3ccccc3Cl)on2)C1)C(=O)COc1c(F)c(F)cc(F)c1F` [Example 125] yielded an EC50 of 16.2 nM.
Take `O=C(O)C[C@H](NC(=O)[C@@H]1COCCN(C(=O)c2cc(-c3ccccc3Cl)on2)C1)C(=O)COc1c(F)c(F)cc(F)c1F` [Example 126]: the EC50 was found to be 9.37 nM.
Turning to `O=C(O)C[C@H](NC(=O)[C@H]1COCCN(C(=O)c2noc3ccccc23)C1)C(=O)COc1c(F)c(F)cc(F)c1F` [Example 127], the concentration for a half-maximal effect (EC50) was determined as 7.14 nM.
In turn, `O=C(O)C[C@H](NC(=O)[C@@H]1COCCN(C(=O)c2noc3ccccc23)C1)C(=O)COc1c(F)c(F)cc(F)c1F` [Example 128] returned an EC50 of 9.15 nM.
For `O=C(O)C[C@H](NC(=O)[C@H]1COCCN(C(=O)C(=O)Nc2ccccc2Cl)C1)C(=O)COc1c(F)c(F)cc(F)c1F` [Example 129], the midpoint of the response, the EC50, lay at 5.65 nM.
With `O=C(O)C[C@H](NC(=O)[C@@H]1COCCN(C(=O)C(=O)Nc2ccccc2Cl)C1)C(=O)COc1c(F)c(F)cc(F)c1F` [Example 130], the response was half-maximal at 8.1 nM (EC50).
